Results on one molecule are retold here after patent US10450295B2, “Method of using an indolinone molecule and derivatives for inhibiting liver fibrosis and hepatitis” (Acclaim BioMed USA LLC, priority 2013, dated 2019).

Molecules are shown by their SMILES.

One assay relates to human HSC's (LX-2). Put plainly: HSC morphology under the microscope. Type of assay: cell-based. As for the experimental part:
In the control cultures, the HSCs appeared morphologically to be like fibroblasts (FIG. 1A). In the presence of Hesperadin, the HSC cells increased in size 2-3 folds (FIGS. 1B and C). The effect of Hesperadin on HSC growth was examined. […] The cell-cycle progression of HSCs is further analyzed in the presence of 0.625 μM Hesperadin using Flow Cytometry. […] Human Hepatic Stellate cells (LX-2 cell line) (HSCs) were obtained from the Key Lab of Regenerative Medicine, Jinan University, Guangzhou, China, which were maintained in Dulbecco's Modified Eagle Medium (DMEM)+10% fetal calf serum and penicillin-streptomycin (100 unit/ml and 0.1 mg/ml, respectively), in 5% CO2 at 37° C. inside a humidified cell incubator. The culture medium was changed every three days. To test the effects of small molecule Hesperadin on the mouse and human HSCs, the cultures were treated with 0.625 μM of Hesperadin for 48 hrs. The cultures were then fixed in ice cold 70% ethanol and incubated in phosphate buffered saline with RNase (0.25 mg/ml), Propidium iodide dye (40 μg/ml) and 0.1% Triton X for an hour at room temperature. […] The proliferation of HSCs was also evaluated by the MTT staining assay with 3-(4,5-Dimethylthiazol-2-yl)-2,5-diphenyltetrazolium bromide). […] The absorbance (at 570 nm) was measured using a BIORAD 3550 Microplate Reader. […]

A further assay relates to TIMP-1 gene expression. Put plainly: Real-time RT-PCR in HSC, TIMP-1. It is filed as cell-based, human. The following applies: 0.625 μM, FIG. 11. On the procedure:
Human Hepatic Stellate cells (LX-2 cell line) (HSCs) were obtained from the Key Lab of Regenerative Medicine, Jinan University, Guangzhou, China, which were maintained in Dulbecco's Modified Eagle Medium (DMEM)+10% fetal calf serum and penicillin-streptomycin (100 unit/ml and 0.1 mg/ml, respectively), in 5% CO2 at 37° C. inside a humidified cell incubator. The culture medium was changed every three days. To test the effects of small molecule Hesperadin on the mouse and human HSCs, the cultures were treated with 0.625 μM of Hesperadin for 48 hrs. […] The proliferation of HSCs was also evaluated by the MTT staining assay with 3-(4,5-Dimethylthiazol-2-yl)-2,5-diphenyltetrazolium bromide). […] The absorbance (at 570 nm) was measured using a BIORAD 3550 Microplate Reader. […]
Collagen type-I, -III and -VI, MMP-2, MMP-9 and TIMP-1 gene expression was determined using quantitative real-time PCR. […] Quantitation of mRNA levels was performed using a SYBR® Premix Ex Taq™ Kit (Takara) in an Applied Biosystems 7900HT Fast Real-Time PCR System. To quantify the amount of specific mRNA in the samples, a standard curve was generated for each PCR run using four amounts of the cDNA synthesized from our HSC cultures and liver samples. […] Data was analyzed using a StatView software (Abacus Concepts Inc) with Student's t-test.

Assay [1] concerns human liver stellate cells. The experiment in a line: Cell death assay (MTT assay) SAR screening of Hesperadin related derivatives. Type of assay: cell-based. The following applies: FIGS. 14A through 14T. On the technique in general: Tetrazolium dyes change colour on reduction, which living cells bring about.
Procedure: Human Hepatic Stellate cells (LX-2 cell line) (HSCs) were obtained from the Key Lab of Regenerative Medicine, Jinan University, Guangzhou, China, which were maintained in Dulbecco's Modified Eagle Medium (DMEM)+10% fetal calf serum and penicillin-streptomycin (100 unit/ml and 0.1 mg/ml, respectively), in 5% CO2 at 37° C. inside a humidified cell incubator. The culture medium was changed every three days. To test the effects of small molecule Hesperadin on the mouse and human HSCs, the cultures were treated with 0.625 μM of Hesperadin for 48 hrs. The cultures were then fixed in ice cold 70% ethanol and incubated in phosphate buffered saline with RNase (0.25 mg/ml), Propidium iodide dye (40 μg/ml) and 0.1% Triton X for an hour at room temperature. For cell cycle analysis, the Propidium iodide stained cells were examined using a flow cytometer (“BD LSRFortessa Cell Analyzer”). The proliferation of HSCs was also evaluated by the MTT staining assay with 3-(4,5-Dimethylthiazol-2-yl)-2,5-diphenyltetrazolium bromide). HSCs were plated at 1×10^4 cells/ml and culture overnight. Hesperadin (in serial dilutions) was then added into the culture medium for 48 hours. This was followed by addition of MTT (250 μg/ml) for a further 4 hours. The medium was eluted and the formazan crystal was dissolved in 100 μL of DMSO. The absorbance (at 570 nm) was measured using a BIORAD 3550 Microplate Reader. […]

For `CCS(=O)(=O)Nc1ccc2c(c1)/C(=C(/Nc1ccc(CN3CCCCC3)cc1)c1ccccc1)C(=O)N2` [Hesperadin, (Z)—N-(2-oxo-3-(Phenyl(4-(piperidin-1-ylmethyl)phenylamino)methylene)indolin-5-yl)ethanesulfonamide], in the assay with human HSC's (LX-2) (0.625 or 1.25 μM, 48 hrs), the “increase in HSC cell size” value is recorded as 2-3 folds. The “increase in HSC size (FIG. 1)” value in the assay with human HSC's (LX-2) (0.65 and 1.25 μM, 24 hours) is “several folds”. For the same molecule, the “TIMP-1 mRNA expression” value in the assay with TIMP-1 gene expression is on record as “inhibited”. Also, in assay [1], the “percentage of inhibition, cell death assay (MTT), relative potency” value is reported as “most potent derivative”.
